Results: patent US10378041B2, “Effervescent compositions and uses thereof” (3M INNOVATIVE PROPERTIES COMPANY, priority 2010, dated 2019)

Test system: Pseudomonas putida (ATCC 31483)
Assay: Bacterial growth in growth medium containing ceftazidime hydrate (96-well plate, turbidity)
Format: cell-based
Parameters: key to bacterial growth (turbidity): “+” indicates growth; “−” indicates no growth
Details: overnight at 37° C.
Experimental: Samples of growth media were prepared by dissolving a tablet of each composition in 1 liter of recovery media (modified Listeria Recovery Broth (MLRB), available from 3M Company; St. Paul, Minn.). The tablets dissolved within 4.5 minutes. A sample of growth media was prepared as a control by dissolving 10 mg of Ceftazidime hydrate powder (product number C3809-5G available from Sigma Aldrich; St. Louis, Mo.) in 1 liter of MLRB.
A bacterial suspension was prepared by inoculating a pure culture of Pseudomonas putida (ATCC 31483 obtained from ATCC, Manassas, Va.) into tryptic soy broth (BD™ Tryptic Soy Broth; Becton Dickinson; Sparks, Md.) and incubating at 37° C. The suspension was diluted 1:1,000 in SMB (Standard Methods Buffer; 3M Company; St. Paul, Minn.). The diluted suspension was further diluted 1:10,000-diluted in SMB growth medium containing ceftazidime concentrations shown in Table 10. Four duplicates of each sample were pipetted into a 96-well plate as follows: Growth Control with no Ceftazidime hydrate; an Undiluted Control with 10 micrograms Ceftazidime hydrate/microliter of the bacterial suspension; and each dilution of inoculated medium containing the concentration of ceftazidime hydrate shown in the Table 10. The 96-well plate was incubated overnight at 37° C. and examined visually for bacterial growth. Turbidity in the well indicated growth.

CC(C)(O/N=C(\C(=O)N[C@@H]1C(=O)N2C(C(=O)[O-])=C(C[n+]3ccccc3)CS[C@H]12)c1csc(N)n1)C(=O)O [Powder Control, Ceftazidime hydrate]
bacterial growth (turbidity) (2.5 mcg CDH/microliter): + | bacterial growth (turbidity) (3.75 mcg CDH/microliter): + | bacterial growth (turbidity) (5.0 mcg CDH/microliter): − | bacterial growth (turbidity) (6.25 mcg CDH/microliter): − | bacterial growth (turbidity) (7.5 mcg CDH/microliter): − | bacterial growth (turbidity) (8.75 mcg CDH/microliter): − | bacterial growth (turbidity) (Undiluted Control - 10 mcg CDH/microliter): − | lowest concentration of ceftazidime hydrate showing no growth (delivered in tablet or powder): 5 mcg/microliter of sample
